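The compound was tested at five concentrations on cells cultured in 96-well plates, with a 48-hour exposure period. GI50 = concentration required for 50% inhibition of growth.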 The source made the active and inactive calls. Rule as the data show it: active = GI50 up to about 1.1 µM and inactive = higher.
What was measured:
Assay in all cases: DTP human tumour cell line panel, 48 h
SNB-19 = tested on: SNB-19
MDA-N = tested on: MDA-N
UO-31 = tested on: UO-31
MDA-MB-231 = tested on: MDA-MB-231
HOP-92 = tested on: HOP-92
HCT-15 = tested on: HCT-15
EKVX = tested on: EKVX
SF-539 = tested on: SF-539
NCI-H460 = tested on: NCI-H460
OVCAR-5 = tested on: OVCAR-5
COLO 205 = tested on: COLO 205
OVCAR-8 = tested on: OVCAR-8
RXF 393 = tested on: RXF 393
T47D = tested on: T47D
MOLT-4 = tested on: MOLT-4
Malme-3M = tested on: Malme-3M
SW-620 = tested on: SW-620
PC-3 = tested on: PC-3
SF-268 = tested on: SF-268
RPMI-8226 = tested on: RPMI-8226
786-0 = tested on: 786-0
Hs-578T = tested on: Hs-578T
SK-MEL-2 = tested on: SK-MEL-2
SR = tested on: SR
OVCAR-4 = tested on: OVCAR-4
K562 = tested on: K562
OVCAR-3 = tested on: OVCAR-3
HL-60 = tested on: HL-60
UACC-257 = tested on: UACC-257
BT-549 = tested on: BT-549
HOP-62 = tested on: HOP-62
TK-10 = tested on: TK-10
A498 = tested on: A498
NCI-H226 = tested on: NCI-H226
SK-OV-3 = tested on: SK-OV-3
UACC-62 = tested on: UACC-62
CAKI-1 = tested on: CAKI-1
U-251 = tested on: U-251
SF-295 = tested on: SF-295
KM12 = tested on: KM12
NCI-H522 = tested on: NCI-H522
CCRF-CEM = tested on: CCRF-CEM
M14 = tested on: M14
LOX IMVI = tested on: LOX IMVI
NCI/ADR-RES = tested on: NCI/ADR-RES
MDA-MB-435 = tested on: MDA-MB-435
A549 = tested on: A549
ACHN = tested on: ACHN
HT-29 = tested on: HT-29
MCF7 = tested on: MCF7
NCI-H23 = tested on: NCI-H23
SK-MEL-5 = tested on: SK-MEL-5
HCT-116 = tested on: HCT-116
IGROV-1 = tested on: IGROV-1
SN12C = tested on: SN12C
SNB-75 = tested on: SNB-75
SK-MEL-28 = tested on: SK-MEL-28
HCC 2998 = tested on: HCC 2998
DU-145 = tested on: DU-145

`CC1CC(=O)Nc2nc3ccccc3n21` (stereo unspecified) was tested. Which GI50 (SNB-19) did it give?
Its GI50 is > 100 µM (inactive).

What about the GI50 (MDA-N) of the same compound?
Its GI50 is > 100 µM (inactive).

And the GI50 (UO-31)?
The GI50 was > 100 µM (inactive).

What about the GI50 (MDA-MB-231) of the same compound?
Its GI50 is > 100 µM (inactive).

What about the GI50 (HOP-92) of the same compound?
The GI50 was > 100 µM (inactive).

What about the GI50 (HCT-15) of the same compound?
The GI50 was over 100 µM.

And the GI50 (EKVX)?
The GI50 was 0.953 µM (active).

What about the GI50 (SF-539) of the same compound?
The GI50 was > 100 µM (inactive).

What about the GI50 (NCI-H460) of the same compound?
The GI50 was > 100 µM (inactive).

What about the GI50 (OVCAR-5) of the same compound?
The GI50 was > 100 µM (inactive).

And the GI50 (COLO 205)?
The GI50 was > 100 µM (inactive).

What about the GI50 (OVCAR-8) of the same compound?
The GI50 was > 100 µM (inactive).

What about the GI50 (RXF 393) of the same compound?
Its GI50 is > 100 µM (inactive).

What about the GI50 (T47D) of the same compound?
The GI50 was > 100 µM (inactive).

What about the GI50 (MOLT-4) of the same compound?
The GI50 was > 100 µM (inactive).

What about the GI50 (Malme-3M) of the same compound?
The GI50 was > 100 µM (inactive).

What about the GI50 (SW-620) of the same compound?
Its GI50 is > 100 µM (inactive).

What about the GI50 (PC-3) of the same compound?
The GI50 was > 100 µM (inactive).

What about the GI50 (SF-268) of the same compound?
The GI50 was > 100 µM (inactive).

What about the GI50 (RPMI-8226) of the same compound?
Its GI50 is > 100 µM (inactive).

What about the GI50 (786-0) of the same compound?
The GI50 was > 100 µM (inactive).

And the GI50 (Hs-578T)?
Its GI50 is > 100 µM (inactive).

And the GI50 (SK-MEL-2)?
The GI50 was > 100 µM (inactive).

What about the GI50 (SR) of the same compound?
The GI50 was > 100 µM (inactive).

And the GI50 (OVCAR-4)?
Its GI50 is > 100 µM (inactive).

What about the GI50 (K562) of the same compound?
Its GI50 is > 100 µM (inactive).

And the GI50 (OVCAR-3)?
The GI50 was > 100 µM (inactive).

And the GI50 (HL-60)?
Its GI50 is > 100 µM (inactive).

What about the GI50 (UACC-257) of the same compound?
The GI50 was > 100 µM (inactive).

And the GI50 (BT-549)?
The GI50 was > 100 µM (inactive).

What about the GI50 (HOP-62) of the same compound?
The GI50 was > 100 µM (inactive).

And the GI50 (TK-10)?
Its GI50 is > 100 µM (inactive).

And the GI50 (A498)?
The GI50 was > 100 µM (inactive).

What about the GI50 (NCI-H226) of the same compound?
The GI50 was > 100 µM (inactive).

What about the GI50 (SK-OV-3) of the same compound?
The GI50 was > 100 µM (inactive).

What about the GI50 (UACC-62) of the same compound?
Its GI50 is > 100 µM (inactive).

And the GI50 (CAKI-1)?
Its GI50 is > 100 µM (inactive).

And the GI50 (U-251)?
Its GI50 is > 100 µM (inactive).

What about the GI50 (SF-295) of the same compound?
Its GI50 is > 100 µM (inactive).

And the GI50 (KM12)?
The GI50 was > 100 µM (inactive).

What about the GI50 (NCI-H522) of the same compound?
The GI50 was > 100 µM (inactive).

And the GI50 (CCRF-CEM)?
The GI50 was > 100 µM (inactive).

And the GI50 (M14)?
The GI50 was > 100 µM (inactive).

What about the GI50 (LOX IMVI) of the same compound?
The GI50 was > 100 µM (inactive).

And the GI50 (NCI/ADR-RES)?
Its GI50 is > 100 µM (inactive).

What about the GI50 (MDA-MB-435) of the same compound?
Its GI50 is > 100 µM (inactive).

What about the GI50 (A549) of the same compound?
Its GI50 is > 100 µM (inactive).

What about the GI50 (ACHN) of the same compound?
Its GI50 is > 100 µM (inactive).

And the GI50 (HT-29)?
Its GI50 is > 100 µM (inactive).

And the GI50 (MCF7)?
The GI50 was > 100 µM (inactive).

And the GI50 (NCI-H23)?
Its GI50 is > 100 µM (inactive).

And the GI50 (SK-MEL-5)?
Its GI50 is > 100 µM (inactive).

What about the GI50 (HCT-116) of the same compound?
Its GI50 is > 100 µM (inactive).

And the GI50 (IGROV-1)?
The GI50 was > 100 µM (inactive).

`O=C1C(=Cc2ccc(O)cc2)N=C(c2ccccc2)N1n1c(-c2ccccc2)nc2ccccc2c1=O` was tested. Which GI50 (SNB-19) did it give?
Its GI50 is > 100 µM (inactive).

And the GI50 (MDA-N)?
Its GI50 is > 100 µM (inactive).

What about the GI50 (UO-31) of the same compound?
Its GI50 is > 100 µM (inactive).

What about the GI50 (MDA-MB-231) of the same compound?
Its GI50 is 76.9 µM (inactive).

What about the GI50 (HCT-15) of the same compound?
Its GI50 is 38.9 µM.

And the GI50 (EKVX)?
Its GI50 is > 100 µM (inactive).

What about the GI50 (SF-539) of the same compound?
Its GI50 is > 100 µM (inactive).

And the GI50 (COLO 205)?
The GI50 was > 100 µM (inactive).

What about the GI50 (OVCAR-8) of the same compound?
Its GI50 is > 100 µM (inactive).

What about the GI50 (T47D) of the same compound?
The GI50 was 49.8 µM (inactive).

And the GI50 (MOLT-4)?
The GI50 was 78.7 µM (inactive).

And the GI50 (Malme-3M)?
Its GI50 is > 100 µM (inactive).

What about the GI50 (SW-620) of the same compound?
The GI50 was > 100 µM (inactive).

What about the GI50 (PC-3) of the same compound?
Its GI50 is 34.8 µM (inactive).

What about the GI50 (SF-268) of the same compound?
Its GI50 is > 100 µM (inactive).

And the GI50 (SN12C)?
Its GI50 is > 10 µM (inactive).

And the GI50 (RPMI-8226)?
The GI50 was 46.1 µM (inactive).

And the GI50 (786-0)?
Its GI50 is > 100 µM (inactive).

And the GI50 (Hs-578T)?
The GI50 was 81.5 µM (inactive).

And the GI50 (K562)?
Its GI50 is > 10 µM (inactive).

And the GI50 (HL-60)?
Its GI50 is 40.6 µM (inactive).

And the GI50 (UACC-257)?
The GI50 was > 100 µM (inactive).

What about the GI50 (BT-549) of the same compound?
The GI50 was > 100 µM (inactive).

And the GI50 (HOP-62)?
Its GI50 is > 100 µM (inactive).

What about the GI50 (TK-10) of the same compound?
Its GI50 is > 100 µM (inactive).

And the GI50 (SNB-75)?
The GI50 was > 100 µM (inactive).

And the GI50 (NCI-H226)?
The GI50 was > 100 µM (inactive).

What about the GI50 (SK-MEL-28) of the same compound?
Its GI50 is 88.9 µM (inactive).

What about the GI50 (SK-OV-3) of the same compound?
The GI50 was > 100 µM (inactive).

And the GI50 (UACC-62)?
Its GI50 is 97.1 µM (inactive).

And the GI50 (CAKI-1)?
The GI50 was > 100 µM (inactive).

What about the GI50 (SF-295) of the same compound?
Its GI50 is > 100 µM (inactive).

What about the GI50 (KM12) of the same compound?
The GI50 was > 100 µM (inactive).

What about the GI50 (NCI-H522) of the same compound?
The GI50 was 50 µM (inactive).

What about the GI50 (CCRF-CEM) of the same compound?
The GI50 was 32 µM (inactive).

What about the GI50 (M14) of the same compound?
Its GI50 is > 100 µM (inactive).

What about the GI50 (LOX IMVI) of the same compound?
The GI50 was > 100 µM (inactive).

And the GI50 (HCC 2998)?
The GI50 was > 100 µM (inactive).

What about the GI50 (MDA-MB-435) of the same compound?
The GI50 was > 100 µM (inactive).

And the GI50 (A549)?
The GI50 was > 100 µM (inactive).

And the GI50 (DU-145)?
The GI50 was > 100 µM (inactive).

What about the GI50 (HT-29) of the same compound?
The GI50 was 72.8 µM (inactive).

What about the GI50 (MCF7) of the same compound?
Its GI50 is 30.9 µM (inactive).

And the GI50 (NCI-H23)?
The GI50 was 71.6 µM (inactive).

And the GI50 (SK-MEL-5)?
The GI50 was > 100 µM (inactive).

And the GI50 (HCT-116)?
The GI50 was > 100 µM (inactive).

And the GI50 (IGROV-1)?
The GI50 was > 100 µM (inactive).

— ChEMBL document CHEMBL1201862, “PubChem BioAssay data set” (2004)
